{"source": "paper PMC10578927", "about": "“An unconventional gatekeeper mutation sensitizes inositol hexakisphosphate kinases to an allosteric inhibitor” (eLife, 2023)", "target": "T1, IP6KA^M85V (Entamoeba histolytica, UniProt N9UNA8, M85V)", "T1 sequence (N9UNA8 1-270 M85V)": "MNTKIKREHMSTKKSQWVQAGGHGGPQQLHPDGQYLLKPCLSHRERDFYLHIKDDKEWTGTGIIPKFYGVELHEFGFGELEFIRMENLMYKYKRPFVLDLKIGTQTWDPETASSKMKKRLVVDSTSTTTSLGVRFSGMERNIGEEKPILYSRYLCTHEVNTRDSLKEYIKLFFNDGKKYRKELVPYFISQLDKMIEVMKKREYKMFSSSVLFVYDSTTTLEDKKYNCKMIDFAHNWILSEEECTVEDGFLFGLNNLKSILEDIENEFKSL", "assay": "NMR activity assay for EhIP6KA constructs", "type": "biochemical"}
{"smiles": "O=C(O)c1ccc2c(c1)C(=O)N(c1ccc(-c3nc4ccc(N5C(=O)c6ccc(C(=O)O)cc6C5=O)cc4[nH]3)cc1)C2=O", "note": "[FMP-201300]", "values": [{"measurement": "IC50", "result": 0.78, "unit": "µM"}]}
